Laboratory results from patent US20080152632A1, “Promoter-reporter cells for determining drug metabolism, drug interactions, and the effects of allotype variation” (Roslin Institute, priority 2005, published 2008).

Test system: AFP promoter in hepatocyte lineage cells
Assay: AFP-eGFP reporter signaling in hepatocyte lineage cells generated using Activin
Type: cell-based, human
Details: H1-LZ-hAFP-eGFP derived cells; factor in HCM medium with HGF and EGF (1 μM dexamethazone from Day 11; 25 ng/mL Oncostatin M from Day 20)
Protocol: The H1-LZ-hAFP-eGFP line of hES cells (Example 2) were expanded in mEF conditioned medium supplemented with 8 ng/mL bFGF on Matrigel™-coated plates. Once they reached 90-95% confluence, the cells were fed and cultured for one day (designated Day 1) with RPMI 1640 containing B27 supplement without vitamin A (GibcoBRL/Invitrogen # 12587-010), 1 mM sodium butyrate (Sigma Cat. no. B5887), and 100 ng/mL Activin A (R&D Systems #338-AC-025), and then for another two days in the same medium except having 0.5 mM sodium butyrate (Stage I). There was substantial cell death, with the remaining cells now having mesenchymal cell morphology, and some forming rosettes.
Starting on Day 4, the cells were fed daily with Knockout DMEM (GibcoBRL/Invitrogen #10829-018) containing 20% Knockout Serum Replacement (GibcoBRL/Invitrogen #10828-028), 2 mM L-glutamine, 1×nonessential amino acids, 0.1 mM β-mercaptoethanol, and 1% DMSO (Stage II). […] Starting on Day 20, the cells were fed on alternate days with HCM Bullet Kit, supplemented with 10 ng/mL human HGF, 10 ng/mL human EGF, and 25 ng/mL human Oncostatin M (Stage V).
In response to the medium components introduced on Day 11, about 60-70% of the cells began expressing eGFP, peaking by Day 19 or 20. Following the change of medium components on […], eGFP expression gradually disappeared.

C[C@@H]1C[C@H]2[C@@H]3CCC4=CC(=O)C=C[C@]4(C)[C@@]3(F)[C@@H](O)C[C@]2(C)[C@@]1(O)C(=O)CO [dexamethazone]
AFP-eGFP reporter expression: expressed

B1: Oncostatin M: human Oncostatin M, late differentiation factor (protein, UniProt P13725 26-221, looked up)
Oncostatin-M: AAIGSCSKEYRVLLGQLQKQTDLMQDTSRLLDPYIRIQGLDVPKLREHCRERPGAFPSEETLRGLGRRGFLQTLNATLGCVLHRLADLEQRLPKAQDLERSGLNIEDLEKLQMARPNILGLRNNIYCMAQLLDNSDTAEPTKAGRGASQPPTPTPASDAFQRKLEGCRFLHGYHRFMHSVGRVFSKWGESPNRSRR
AFP-eGFP reporter expression: decreased
